Assays:
[1] = system: peroxisome proliferator-activated receptor γ (PPAR γ); assay: Aortic gene expression by real-time RT-PCR: PPAR γ and responsive genes; assay type: in vivo, mice; conditions: day 84
Protocol: (§1) FIG. 6 are graphs showing that ABA decreases immune cell infiltration in aortas of ApoE−/− mice and reduces pro-inflammatory gene expression. ApoE −/− mice were fed high fat diets created with or without 100 mg/kg diet racemic abscisic acid (ABA). (A) Infiltration of F4/80^+CD11b^+ macrophages and CD4^+ T-cells into the aorta were assessed with flow cytometry. Gene expression in the aorta of pro-inflammatory markers (B) vascular cell adhesion molecule 1 (VCAM-1), (C) monocyte chemoattractant protein 1 (MCP-1), (D) E-selectin, (F) peroxisome proliferator-activated receptor γ (PPAR γ), and (G) CD36 were measured as a ratio to the housekeeping gene β-actin. (H) MCP-1 protein concentrations (pg/mL) were measured by ELISA. Data were analyzed as a completely randomized design.
(§2) Total RNA was isolated from aortas using the RNA isolation Minikit (Qiagen) according to the manufacturer's instructions. […] Each gene amplicon was purified with the MiniElute PCR Purification Kit (Qiagen) and quantitated on an agarose gel by using a DNA mass ladder (Promega). […]
(§3) Complementary DNA (cDNA) concentrations for genes of interest were examined by real-time quantitative PCR using an iCycler IQ System and the iQ SYBR green supermix (Bio-Rad). […] Results are presented as a starting quantity of target cDNA (picograms) per microgram of total RNA. […]

[2] = Body weight and fasted plasma metabolic parameters of ApoE-deficient mice fed high-fat diet with or without ABA; assay type: in vivo
Protocol: Five-week old ApoE −/− mice (n=40) were housed at the animal facilities at Virginia Polytechnic Institute and State University in a room maintained at 75° F., with a 12:12 h light-dark cycle starting from 6:00 AM. All experimental procedures were approved by the Institutional Animal Care and Use Committee of Virginia Polytechnic Institute and State University and met or exceeded requirements of the Public Health Service/National Institutes of Health and the Animal Welfare Act. Mice were fed a high saturated fat (AIN-93G-based) diet containing 19.6% fat and 0.2% total cholesterol and obtaining 40.1% of Kcal from fat (4.4 Kcal/g) with or without 100 mg/kg of a racemic ABA mixture (Guri et al., J. Nutr. Biochem. 19:216-28, 2008). Systolic blood pressure was assessed on days 0, 28, 56, and 72. On day 84, fasted mice (12 h) were sacrificed by carbon dioxide asphyxiation and blood was withdrawn through cardiac puncture. Glucose concentrations of whole blood were assessed with an Accu-Chek® Glucometer (Roche, Indianapolis, Ind.) and plasma insulin was measured through insulin ELISA (Millipore, Billerica, Mass.). Aortas were collected for analysis of immune cell infiltration, histological evaluation of atherosclerotic lesions, and gene expression analyses.
Plasma cholesterol and triglyceride levels were measured using kits from Raichem (San Diego, Calif.) adapted for microtiter plate assays. Plasma free fatty acids were measured using the NEFA-HR(2) kit from Wako. Fast performance liquid chromatography (FPLC) separation of plasma lipoproteins was performed on a Superose 6 column using buffer containing 0.15M NaCl, 0.01M Na2HPO4 and 1 mM EDTA at a flow rate of 0.5 ml/min. Forty 0.5 ml fractions were collected and cholesterol was measured in fractions 10-40. Fractions 15-20 contain VLDL, fractions 21-27 contain LDL and fractions 28-34 contain HDL.

E-selectin = assay: Aortic gene expression by real-time RT-PCR: E-selectin; assay type: in vivo, mice; conditions: P=0.20
Protocol: as §1, §2, §3

[3] = ApoE-deficient mice, high-fat diet, 84 days
[4] = fasted plasma, day 84, ABA 100 mg/kg diet, least square mean ± standard error
[5] = fasted plasma, day 84, ABA 100 mg/kg diet, least square mean ± standard error, * P<0.05 vs control

CC1=CC(=O)CC(C)(C)C1(O)/C=C/C(C)=C\C(=O)O (racemic) [ABA, abscisic acid]
Expression of PPAR γ or its responsive genes in the aorta vs control [1]: no differences | Body Weight ([2]; ApoE-deficient mice, high-fat diet with ABA 100 mg/kg, day 84, least square mean ± standard error): 30.8 ± 0.63 g | Effect on body weights vs control diet [2, 3]: no significant effect | Effect on insulin vs control diet [2, 3]: no significant effect | Effect on plasma glucose vs control diet [2, 3]: no significant effect | Effect on plasma non-esterified fatty acid concentration vs control diet [2, 3]: significantly raise | Effect on plasma triglyceride (TG) concentration vs control diet [2, 3]: significantly raise | Effect on total cholesterol levels vs control diet [2, 3]: no significant effect | Glucose ([2]; fasted (12 h), day 84, ABA 100 mg/kg diet, least square mean ± standard error): 194.6 ± 11.9 mg/dL | Cholesterol [2, 4]: 339.0 ± 25.1 mg/dL | Insulin [2, 4]: 0.432 ± 0.05 ng/mL | NEFAs (non-esterified fatty acids) [2, 5]: 2.05 ± 0.17* mequiv./mL | TGs (triglycerides) [2, 5]: 136.1 ± 12.3* mg/dL | HOMA-IR (homeostasis model assessment-insulin resistance) ([2]; fasted, day 84, ABA 100 mg/kg diet, least square mean ± standard error): 4.93 ± 0.76 | E-selectin mRNA expression in the aortic roots vs control (E-selectin): reduced, though not to statistical significance
